Patent US4524077A, “Liquid 2-hydroxy-4-methylthiobutyric acid and process for the preparation thereof” (priority 1983, dated 1985)

Columns and labels:
[1] = Gardner color of HMBA product; format: physicochemical
Excerpt: This product has a total HMBA content, including monomer, dimers, and oligomers, of between about 80% and about 95% by weight, preferably 85% to 90% by weight, and a water content of between about 5% and about 20%, preferably between 10% and about 15% by weight. […] The ratio of the weight proportion of HMBA monomer to the weight proportion of the sum of dimers and other oligomers thereof is at least about 2.8, preferably at least about 5.7.

[2] = Extraction of diluted HCl hydrolyzate at 70° C. (Table VIII); format: physicochemical; settings: HMBA extract/raffinate, HCl hydrolyzate diluted 100:40 with water
Excerpt: The phases were separated and analyzed for HMBA.
This work up and extraction was repeated for 1-butanol.

Row | Gardner color ([1]; 88% by weight solution in water, Example 1, first method (methyl propyl ketone and water extraction)) | Color (Gardner) ([1]; Example 6, Product) | Gardner color ([1]; Example 13, bottom product, 88.9% HMBA) | SMILES | Distribution Coefficient [2]
1 | 5 | 3 | 4 | CSCCC(O)C(=O)O (racemic) [HMBA, 2-hydroxy-4-methylthiobutyric acid] | 
2 |  |  |  | CC(=O)CC(C)C [Methyl isobutyl ketone] | 2.4
